Columns and labels:
[1] = cited from earlier work
insulin secretion = test: Alternating bolus injections of GLP-1 and exendin-4 via left atrial catheter in anesthetized dogs; conditions: after normalization of hyperglycemia and in euglycemic state
Protocol: GLP-1(7-36) amide was given at time 0 (0.1 nmol) and at 40 min (1 nmol).

Compound	meal-related increases in blood glucose concentration and plasma insulin and glucagon ([1]; normal subjects, infusion)	lowering of the insulin required ([1]; patients with IDDM)	reduction of the requirement for insulin ([1]; patients with NIDDM)	hypoglycemia (insulin secretion)
glucagon-like insulinotropic peptide [GLIP]	significantly lowered	one half	8 fold	
CC[C@H](C)[C@H](NC(=O)[C@H](Cc1ccccc1)NC(=O)[C@H](CCC(=O)O)NC(=O)[C@H](CCCCN)NC(=O)[C@H](C)NC(=O)[C@H](C)NC(=O)[C@H](CCC(N)=O)NC(=O)CNC(=O)[C@H](CCC(=O)O)NC(=O)[C@H](CC(C)C)NC(=O)[C@H](Cc1ccc(O)cc1)NC(=O)[C@H](CO)NC(=O)[C@H](CO)NC(=O)[C@@H](NC(=O)[C@H](CC(=O)O)NC(=O)[C@H](CO)NC(=O)[C@@H](NC(=O)[C@H](Cc1ccccc1)NC(=O)[C@@H](NC(=O)CNC(=O)[C@H](CCC(=O)O)NC(=O)[C@H](C)NC(=O)[C@@H](N)Cc1c[nH]cn1)[C@@H](C)O)[C@@H](C)O)C(C)C)C(=O)N[C@@H](C)C(=O)N[C@@H](Cc1c[nH]c2ccccc12)C(=O)N[C@@H](CC(C)C)C(=O)N[C@H](C(=O)N[C@@H](CCCCN)C(=O)NCC(=O)N[C@@H](CCCNC(=N)N)C(N)=O)C(C)C [GLP-1, glucagon-like peptide-1]				hypoglycemia does not occur
